Values after ≈ are worked out from the molar mass of the structure shown.
system: Vero cells; test: Vero cell cytotoxicity MTT assay; assay type: cell-based, green monkey; details: 72 h, concentration that inhibited 50% viability

With `O=C(Nc1nc(-c2ccccn2)cs1)c1ccccc1OCc1ccccc1` [Compound 39] the “EC50, μM” value was “insol”.

system: Mtb; test: not given; details: reported values; cited from earlier work

`Clc1ccc(Nc2nc(-c3ccccn3)cs2)nc1` [Compound 18] and `Cc1cccc(Nc2nc(-c3ccccn3)cs2)n1` [Compound 19] are the same in “reported MIC (HTS results)” value: 0.35 µM for the first, 0.35 µM for the second.

For `Fc1ccc(Nc2nc(-c3ccccn3)cs2)cc1` [Compound 12], the “reported MIC (HTS results)” value is listed as 2 µM.

In the case of `FC(F)(F)c1ccccc1Nc1nc(-c2ccccn2)cs1` [Compound 13], the “reported MIC (HTS results)” value is given as under 0.3 µM.

system: M. tuberculosis H37Rv; test: M. tuberculosis H37Rv MIC assay; assay type: cell-based, Mycobacterium tuberculosis; details: not given

With “2-[N-(Benzoyl)amino]-4-(thiazol-2-yl)thiazole [Compound 92]” the “MIC, μM (7H9-glucose)” value was over 25 µM.

same assay, conditions: M. tuberculosis H37Rv

In the case of “2-[N-(Benzoyl)amino]-4-(thiazol-2-yl)thiazole [Compound 92]”, the “antitubercular activity (in words)” value was “inactive”.
For `O=C(Nc1nc(-c2cnccn2)cs1)c1ccccc1` [Compound 91, 2-[N-(Benzoyl)amino]-4-(pyrazin-2-yl)thiazole], the “antitubercular activity (in words)” value was “inactive”.
With `O=C(Nc1nc(-c2ccccc2)cs1)c1ccccc1` [Compound 90, 2-[N-(Benzoyl)amino]-4-(phenyl)thiazole] the “antitubercular activity (in words)” value was “obliterates all activity”.

same assay, conditions: M. tuberculosis H37Rv; GAST medium (glycerol and alanine); […]

For “2-[N-(Benzoyl)amino]-4-(thiazol-2-yl)thiazole [Compound 92]”, the “MIC, μM (GAST)” value was at least 25 µM.

same assay, conditions: Mycobacterium tuberculosis, H37RV, read-out: MIC, μM (7H9-butyrate)

Compared with `Cc1cccc(C(=O)Nc2nc(-c3ccccn3)cs2)c1` [Compound 37], `Cc1ccccc1C(=O)Nc1nc(-c2ccccn2)cs1` [Compound 36] is higher in MIC: 0.049 to 0.098 µM (≈ 0.0145 to 0.0289 µg/mL) for the first, 0.19 to 0.39 µM (≈ 0.0561 to 0.115 µg/mL) for the second.

`CC(=O)c1ccc(C(=O)Nc2nc(-c3ccccn3)cs2)cc1` [Compound 48] and `COc1ccc(C(=O)Nc2nc(-c3ccccn3)cs2)cc1` [Compound 44] fall in the same range of MIC: 0.19 to 0.39 µM (≈ 0.0614 to 0.126 µg/mL) for the first, 0.19 to 0.39 µM (≈ 0.0592 to 0.121 µg/mL) for the second.

Compared with `COc1ccccc1C(=O)Nc1nc(-c2ccccn2)cs1` [Compound 42], `O=C(Nc1nc(-c2ccccn2)cs1)c1ccccc1O` [Compound 45] is lower in MIC: 3.1 to 6.3 µM (≈ 0.965 to 1.96 µg/mL) for the first, 1.6 to 3.1 µM (≈ 0.476 to 0.922 µg/mL) for the second.

First: O=C(Nc1nc(-c2ccccn2)cs1)c1ccccn1 [Compound 68]
Second: O=C(Nc1nc(-c2ccccn2)cs1)c1ccccc1Cl [Compound 54]
The MIC of the first is higher: 3.1 to 6.3 µM (≈ 0.875 to 1.78 µg/mL) for the first, 0.19 to 0.39 µM (≈ 0.06 to 0.123 µg/mL) for the second.

For `O=C(Nc1nc(-c2ccccn2)cs1)c1c(F)cccc1Cl` [Compound 66], the MIC was 0.39 to 0.78 µM (≈ 0.13 to 0.26 µg/mL).

same assay, conditions: Mycobacterium tuberculosis, H37RV, read-out: MIC, μM (7H9-glucose)

Compared with `O=C(Nc1nc(-c2ccccn2)cs1)c1ccsc1` [Compound 33], `O=C(Nc1nc(-c2ccccn2)cs1)c1ccoc1` [Compound 31] is higher in MIC: 1.6 to 3.1 µM (≈ 0.46 to 0.891 µg/mL) for the first, 3.1 to 6.3 µM (≈ 0.841 to 1.71 µg/mL) for the second.

First: O=C(Nc1nc(-c2ccccn2)cs1)c1cccc(F)c1 [Compound 58]
Second: O=C(Nc1nc(-c2ccccn2)cs1)c1cccc(Br)c1 [Compound 52]
The MIC of the first is higher: 0.19 to 0.39 µM (≈ 0.0569 to 0.117 µg/mL) for the first, 0.098 to 0.19 µM (≈ 0.0353 to 0.0684 µg/mL) for the second.

`Cc1cccc(C(=O)Nc2nc(-c3ccccn3)cs2)c1` [Compound 37] and `O=C(Nc1nc(-c2ccccn2)cs1)c1cccc(Cl)c1` [Compound 55, N-(3-Chlorobenzoyl)-4-(2-pyridinyl)-1,3-thiazol-2-amine] fall in the same range of MIC: 0.19 to 0.39 µM (≈ 0.0561 to 0.115 µg/mL) for the first, 0.19 to 0.39 µM (≈ 0.06 to 0.123 µg/mL) for the second.

First: O=C(Nc1nc(-c2ccccn2)cs1)c1ccco1 [Compound 30]
Second: O=C(Nc1nc(-c2ccccn2)cs1)c1cccs1 [Compound 32]
The MIC of the first is higher: 3.1 to 6.3 µM (≈ 0.841 to 1.71 µg/mL) for the first, 1.6 to 3.1 µM (≈ 0.46 to 0.891 µg/mL) for the second.

Compared with `O=C(Nc1nc(-c2ccccn2)cs1)c1ccc(OCc2ccccc2)cc1` [Compound 41], `O=C(Nc1nc(-c2ccccn2)cs1)c1cccc(OCc2ccccc2)c1` [Compound 40] is higher in MIC: 0.19 to 0.39 µM (≈ 0.0736 to 0.151 µg/mL) for the first, 0.39 to 0.78 µM (≈ 0.151 to 0.302 µg/mL) for the second.

`O=C(Nc1nc(-c2ccccn2)cs1)c1cccnc1Cl` [Compound 67] and `O=C(Nc1nc(-c2ccccn2)cs1)c1ccccc1Cl` [Compound 54] fall in the same range of MIC: 0.39 to 0.78 µM (≈ 0.124 to 0.247 µg/mL) for the first, 0.39 to 0.78 µM (≈ 0.123 to 0.246 µg/mL) for the second.

`CCCC(=O)Nc1nc(-c2ccccn2)cs1` [Compound 21, N-[4-(2-pyridinyl)-1,3-thiazol-2-yl)butyramide] and `CC1CC1C(=O)Nc1nc(-c2ccccn2)cs1` (stereo not shown) [Compound 29] cannot be ordered by MIC: 12 to 25 µM (≈ 2.97 to 6.18 µg/mL) for the first, 6.3 to 12.5 µM (≈ 1.63 to 3.24 µg/mL) for the second.

First: O=C(Nc1nc(-c2ccccn2)cs1)c1ccc(F)cc1F [Compound 61]
Second: O=C(Nc1nc(-c2ccccn2)cs1)c1ccc(F)c(F)c1 [Compound 64]
The MIC of the first is lower: 0.39 to 0.78 µM (≈ 0.124 to 0.248 µg/mL) for the first, 1.6 to 3.1 µM (≈ 0.508 to 0.984 µg/mL) for the second.

First: O=C(Nc1nc(-c2ccccn2)cs1)C1CC1 [Compound 25]
Second: O=C(Nc1nc(-c2ccccn2)cs1)c1ccncc1 [Compound 70]
The MIC of the first is higher: 12 to 25 µM (≈ 2.94 to 6.13 µg/mL) for the first, 1.6 to 3.1 µM (≈ 0.452 to 0.875 µg/mL) for the second.

First: O=C(Nc1nc(-c2ccccn2)cs1)c1cccc([N+](=O)[O-])c1 [Compound 50]
Second: COc1cccc(C(=O)Nc2nc(-c3ccccn3)cs2)c1 [Compound 43]
The MIC of the first is higher: 1.6 to 3.1 µM (≈ 0.522 to 1.01 µg/mL) for the first, 0.19 to 0.39 µM (≈ 0.0592 to 0.121 µg/mL) for the second.

First: O=C(Nc1nc(-c2ccccn2)cs1)c1ccccc1Br [Compound 51]
Second: O=C(Nc1nc(-c2ccccn2)cs1)c1ccccc1O [Compound 45]
The MIC of the first is lower: 0.39 to 0.78 µM (≈ 0.14 to 0.281 µg/mL) for the first, 1.6 to 3.1 µM (≈ 0.476 to 0.922 µg/mL) for the second.

`O=C(Nc1nc(-c2ccccn2)cs1)c1ccccc1F` [Compound 57] and `O=C(Nc1nc(-c2ccccn2)cs1)c1ccccc1[N+](=O)[O-]` [Compound 49] fall in the same range of MIC: 1.6 to 3.1 µM (≈ 0.479 to 0.928 µg/mL) for the first, 1.6 to 3.1 µM (≈ 0.522 to 1.01 µg/mL) for the second.

Compared with `FC(F)(F)c1ccccc1Nc1nc(-c2ccccn2)cs1` [Compound 13], `c1ccc(Nc2nc(-c3ccccn3)cs2)nc1` [Compound 17] is lower in MIC: 12 to 25 µM (≈ 3.86 to 8.03 µg/mL) for the first, 0.78 to 1.6 µM (≈ 0.198 to 0.407 µg/mL) for the second.

same assay, conditions: relative to 1

In the case of `O=C(Nc1nc(-c2ccccn2)cs1)c1ccccc1` [Compound 35, 2-[N-(Benzoyl)amino]-4-(pyridin-2-yl)thiazole], the “fold better MIC than the corresponding N-phenyl 1” value was 64 fold.

same assay, conditions: relative to 35

For `Cc1cccc(C(=O)Nc2nc(-c3ccccn3)cs2)c1` [Compound 37], the “fold increase in potency relative to benzoyl 35” value was 2- to 4 fold.

With `O=C(Nc1nc(-c2ccccn2)co1)c1ccccc1` [Compound 82, 2-[N-(Benzoyl)amino]-4-(pyridin-2-yl)oxazole] the “fold loss of potency relative to the parent thiazole 35” value was 16- to 64 fold.
With `O=C(Nc1cc(-c2ccccn2)cs1)c1ccccc1` [Compound 75, 2-[N-(Benzoyl)amino]-4-(pyridin-2-yl)thiophene] the “fold loss of potency relative to the parent thiazole 35” value was at least 64 fold.
For `O=C(Nc1nc(-c2ccccn2)c[nH]1)c1ccccc1` [Compound 78, 2-[N-(Benzoyl)amino]-4-(pyridin-2-yl)imidazole], the “fold loss of potency relative to the parent thiazole 35” value was 16- to 64 fold.

same assay, conditions: relative to 69

In the case of `O=C(Nc1nc(-c2ccccn2)cs1)c1cccnc1Cl` [Compound 67], the “fold improvement of activity over nicotinoyl 69” value was 8- to 16 fold.

same assay, conditions: relative to oxazole 82

With `O=C(Nc1nnc(-c2ccccn2)o1)c1ccccc1F` [Compound 83, 2-[N-(2-Fluorobenzoyl)amino]-5-(pyridin-2-yl)-1,3,4-oxadiazole] the “regain in potency relative to 82” value was 2–4.

Source: publication PMC3816974 (Bioorganic & medicinal chemistry, 2013)
